Measurements from ChEMBL document CHEMBL1156007, “mu-Opioid/5-HT4 dual pharmacologically active agents-efforts towards an effective opioid analgesic with less GI and respiratory side effects (Part I)” (Bioorg Med Chem Lett, 2009).

Tests used:
[1] = target: Mu-type opioid receptor (Homo sapiens, UniProt P35372); test: Binding affinity to human mu opioid receptor
[2] = target: T1, 5-hydroxytryptamine receptor 4 (Homo sapiens, UniProt Q13639); test: Displacement of [3H]GR-113808 from human recombinant 5-HT4 receptor
T1 sequence (Q13639 whole entry): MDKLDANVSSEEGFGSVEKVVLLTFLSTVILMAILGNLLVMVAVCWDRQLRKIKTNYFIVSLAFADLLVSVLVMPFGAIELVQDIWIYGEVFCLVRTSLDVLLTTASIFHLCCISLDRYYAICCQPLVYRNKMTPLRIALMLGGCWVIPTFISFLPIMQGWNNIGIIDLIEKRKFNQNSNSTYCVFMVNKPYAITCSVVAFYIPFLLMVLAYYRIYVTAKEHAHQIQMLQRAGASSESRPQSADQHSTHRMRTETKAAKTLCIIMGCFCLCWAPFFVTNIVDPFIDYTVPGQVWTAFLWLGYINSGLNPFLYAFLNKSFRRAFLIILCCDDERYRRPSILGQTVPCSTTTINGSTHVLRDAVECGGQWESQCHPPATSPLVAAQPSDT

[3] = target: T2, 5-hydroxytryptamine receptor 3A (Homo sapiens, UniProt P46098); test: Displacement of [3H]granisetron from human recombinant 5-HT3 receptor expressed in HEK293 cells; type: cell-based
T2 sequence (P46098 whole entry): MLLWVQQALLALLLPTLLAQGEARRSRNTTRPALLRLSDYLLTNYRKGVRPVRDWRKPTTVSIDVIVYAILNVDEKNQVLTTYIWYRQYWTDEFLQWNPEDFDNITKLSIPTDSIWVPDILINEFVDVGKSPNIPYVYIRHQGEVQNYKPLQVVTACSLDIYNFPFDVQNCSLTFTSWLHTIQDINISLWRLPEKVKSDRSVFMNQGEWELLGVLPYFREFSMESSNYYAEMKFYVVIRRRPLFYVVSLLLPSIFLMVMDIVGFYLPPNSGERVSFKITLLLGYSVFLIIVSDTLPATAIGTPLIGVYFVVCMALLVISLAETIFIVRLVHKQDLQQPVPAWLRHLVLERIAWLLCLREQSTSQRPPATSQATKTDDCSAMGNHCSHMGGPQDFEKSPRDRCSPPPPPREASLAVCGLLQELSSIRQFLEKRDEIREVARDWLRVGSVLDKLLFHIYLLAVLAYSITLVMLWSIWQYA

[4] = target: T1, 5-hydroxytryptamine receptor 4; test: Agonist activity at human recombinant 5-HT4 receptor; type: functional
[5] = target: T2, 5-hydroxytryptamine receptor 3A; test: Antagonist activity at human recombinant 5-HT3 receptor expressed in HEK293 cells; type: functional, cell-based

Chain of Mu-type opioid receptor (P35372 whole entry): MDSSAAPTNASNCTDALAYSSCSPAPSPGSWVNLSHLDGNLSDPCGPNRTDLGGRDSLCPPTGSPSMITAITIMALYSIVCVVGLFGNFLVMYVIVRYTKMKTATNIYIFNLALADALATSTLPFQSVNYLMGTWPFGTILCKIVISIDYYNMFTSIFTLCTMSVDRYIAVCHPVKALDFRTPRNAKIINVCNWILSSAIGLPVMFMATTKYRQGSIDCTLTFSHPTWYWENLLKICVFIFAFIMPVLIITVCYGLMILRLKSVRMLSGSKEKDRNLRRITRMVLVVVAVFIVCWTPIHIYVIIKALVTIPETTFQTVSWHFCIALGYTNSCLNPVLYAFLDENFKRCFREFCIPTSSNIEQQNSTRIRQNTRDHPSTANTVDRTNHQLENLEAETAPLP

Row | Compound | IC50 [1] [nM] | IC50 [2] [nM] | IC50 [3] [nM] | EC50 [4] [nM] | EC50 [5] [nM]
1 | COc1cc(N)c(Cl)cc1C(=O)NCCN(C)CC1CCCCC1(O)c1cccc(O)c1 (racemic) | 190 | > 10000 | 2800 |  | 
2 | COc1cc(N)c(Cl)cc1C(=O)N[C@@H]1CCN(C[C@H]2CCCC[C@]2(O)c2cccc(O)c2)C[C@@H]1OC | > 10000 | > 10000 | 1600 |  | 
3 | COc1cccc([C@]2(O)CCCC[C@H]2CN2CC[C@@H](NC(=O)c3cc(Cl)c(N)cc3OC)[C@@H](OC)C2)c1 | > 10000 | 3900 | 159 | 120 | > 10000
4 | COc1cc(N)c(Cl)cc1C(=O)NCCN(C)C[C@@H]1CCCC[C@@]1(O)c1cccc(O)c1 | 5100 | > 10000 | 2500 |  | 
5 | COc1cc(N)c(Cl)cc1C(=O)NC1CCNCC1OC (racemic) [NORCISAPRIDE] |  | 19 | 1600 | 290 | 2300
6 | COc1cccc([C@@]2(O)CCCC[C@@H]2CN2CC[C@@H](NC(=O)c3cc(Cl)c(N)cc3OC)[C@@H](OC)C2)c1 | > 10000 | > 10000 | 2800 |  | 
7 | COc1cccc([C@@]2(O)CCCC[C@@H]2CN(C)CCNC(=O)c2cc(Cl)c(N)cc2OC)c1 | 4500 | 5000 | 3500 |  | 
8 | COc1cc(N)c(Cl)cc1C(=O)N[C@H]1CCN(C[C@@H]2CCCC[C@@]2(O)c2cccc(O)c2)C[C@H]1OC | 410 | 9900 | 18 | 90 | 
9 | COc1cc(N)c(Cl)cc1C(=O)N[C@@H]1CCN(C[C@@H]2CCCC[C@@]2(O)c2cccc(O)c2)C[C@@H]1OC | > 10000 | > 10000 | 1400 |  | 
10 | COc1cccc([C@@]2(O)CCCC[C@@H]2CN2CC[C@H](NC(=O)c3cc(Cl)c(N)cc3OC)[C@H](OC)C2)c1 | > 10000 | 6100 | 790 |  | 
11 | COc1cccc([C@]2(O)CCCC[C@H]2CN(C)CCNC(=O)c2cc(Cl)c(N)cc2OC)c1 | > 10000 | > 10000 | 4900 |  | 
12 | COc1cc(N)c(Cl)cc1C(=O)NCCN(C)C[C@H]1CCCC[C@]1(O)c1cccc(O)c1 | 340 | > 10000 | 3100 |  | 
13 | COc1cc(N)c(Cl)cc1C(=O)N[C@H]1CCN(C[C@H]2CCCC[C@]2(O)c2cccc(O)c2)C[C@H]1OC | > 10000 | > 10000 | 390 |  | 
14 | COc1cccc([C@]2(O)CCCC[C@H]2CN2CC[C@H](NC(=O)c3cc(Cl)c(N)cc3OC)[C@H](OC)C2)c1 | > 10000 | 4600 | 1700 |  | 
